{"source": "patent US11191820B2", "about": "“Method for inducing early T memory response with short peptides anti-tumor vaccine” (OSE IMMUNOTHERAPEUTICS, priority 2015, dated 2021)", "format_in_all_cases": "in vivo, human", "key": {"central memory T cells [1]": {"test_system": "central memory T cells", "assay": "Cultured IFN-γ ELISPOT after 10-day in vitro stimulation of PBMC, phase 1/2 NSCLC trial of OSE-2101", "parameters": "key to net SFC of vaccine positive CTL responses: —, indicates SFC response did not meet criteria and vaccine response was negative", "conditions": "for No. Positive Responses: 6 NSCLC patients", "method": "(§1) Clinical study design. Both trials were designed as phase 1/2, open label, multi-center, single dose, multiple administration studies to evaluate the safety and immunogenicity of the OSE-2101 immunotherapy. Patients were treated with 1 ml OSE-2101 every 3 weeks for a total of six doses. Each dose was administered subcutaneously in the same vicinity in the deltoid or upper thigh region, or at a contralateral site if local side-effects were observed. The study duration for each completed patient was 18 weeks. Clinical responses or patient survival were not measured in either phase 1/2 studies.\n(§2) Clinical sample processing. Blood or leukapheresis product was obtained from patients at the pre-treatment, the Week 9 and Week 18 time points, 3 weeks after the third and sixth dose of OSE-2101 respectively. Peripheral blood mononuclear cells (PBMC) were isolated from samples within 24 hours of collection using a FICOLL-PAQUE density gradient and cryopreserved in containers designed to ensure optimal freezing (Mr. Frosty, Nalgene). For use, cells were rapidly thawed at 37° C. then transferred to human AB serum-containing medium for work-up.\n(§3) Measurement of central T memory cells responses and T effector memory cells. The CTL responses in 16 total patients (10 colon and six NSCLC) were monitored for CTL responses against each epitope and against the wild-type epitope of epitopes analogs. For each patient, the pre-treatment, Week 9 and Week 18 time points were batch-tested in the same experiment to allow pre- versus post-treatment response comparison in the same experiment. Central T memory cells responses were measured using an IFN-γ enzyme-linked immunospot (cultured ELISPOT) assay following in vitro stimulation of PBMC for 10 days with each vaccine epitope. Briefly, PBMC from each time point were stimulated on day 0 with 10 μg/ml of each epitope individually in replicate in 48-well culture plates (2×10^6 PBMC/well). All cultures were fed with rIL-2 (Endogen, Woburn, Mass.; 10 U/ml final concentration) on days 1, 4 and 7. Ten days after initiation of culture, cells were harvested and tested for activity against specific vaccine peptides and corresponding wild-type peptides of vaccine analogs in the T memory ELISPOT assay. Cells were tested in Millipore IP 96-well plates pre-coated with mouse anti-human IFN-γ antibody (Mabtech USA, Cincinnati, Ohio). Five×10^4 cells and 1.25×10^4 cells from each culture were plated in triplicate wells together with 10^5 irradiated autologous PBMC and 10 μg/ml peptide. As a control, CTL were also tested against an irrelevant HLA-A2.1-binding HBV peptide. After 20 hours incubation, T memory ELISPOT plates were developed by performing sequential incubations with biotinylated anti-human IFN-γ antibody (Mabtech USA), Avidin-Peroxidase Complex (APC, Vector Laboratories, Burlingame, Calif.), and 3-amino-9-ethyl carbazole (AEC) substrate (Sigma Aldrich, St. Louis, Mo.). Spot-forming cells (SFC) were enumerated using a computer-assisted image analysis system (Zeiss KS ELISPOT Reader, Carl Zeiss MicroImaging, Thornwood, N.J.). Data is reported as the net SFC per 5×10^4 cells after subtracting spots induced with the irrelevant HBV peptide."}, "central memory T cells [2]": {"test_system": "central memory T cells", "assay": "Cultured IFN-γ ELISPOT after 10-day in vitro stimulation of PBMC, phase 1/2 colon cancer trial of OSE-2101", "parameters": "key to net SFC of vaccine positive CTL responses: —, indicates SFC response did not meet criteria and vaccine response was negative", "conditions": "for Mean SFC: 10 colon patients", "method": "as §1, §2, §3"}, "central memory T cells [3]": {"test_system": "central memory T cells", "assay": "Central memory T cell cultured ELISPOT, phase 2 trial in advanced NSCLC", "method": "CTL Immune responses measured though cultured Elispot. The immunogenicity was measured in Phase 2 clinical trial on cryopreserved PBMC from each test sample were thawed in 5% human culture medium (RPMI-1640 medium with 25 mM HEPES, supplemented with 5% human AB serum, 4 mM L-glutamine, 0.5 mM sodium pyruvate, 0.1 mM MEM non-essential amino acids, 100 μg/ml streptomycin, and 100 U/ml penicillin) containing 30 μg/ml DNAase. After centrifugation for 5 minutes at 1200 rpm, the cell pellets were resuspended in 5% human culture medium and washed 2 times. For the central Memory T cell cultured ELISPOT assay, 2×10^6/ml PBMC were placed in replicate wells in a 48-well plates and stimulated for 10 days with 10 μg/ml of each peptide. As a positive control, PBMC were also stimulated with a pool of recall viral peptides. Human rIL2 (10 U/ml) was added to the peptide-stimulated cultures at day 1, day 4 and day 7. After 10 days the stimulated cells were harvested and plated at a concentration of 5×10^4/well. Assay wells also received irradiated autologous PBMC (1×10^5/well) and 10 μg/ml peptide, either the vaccine peptide, irrelevant peptide or positive control peptides. Cells stimulated in vitro with each analog epitope were also tested against the corresponding wild-type epitope.\nData analysis and acceptance criteria. Mean and standard deviation (SD) of spots in replicate wells were calculated in all assays by transferring raw ELISPOT data from each experiment to an Excel-based computer program. Positive vaccine-induced T-cell responses were determined according to the criteria described below.\nAcceptance Criteria for peptide-Induced specific T-cell response through central memory T cells: The positive criteria for CTL responses used in the phase 2 trial was identical to the criteria in the phase 1/2 trials which was established prospectively after analyzing the variability of pre-treatment responses in patients against each vaccine epitope and the irrelevant HBV control epitope. A positive peptide-induced CTL/T memory response to a given epitope met all of the following conditions: 1) was greater than 5 SFC above the irrelevant epitope response, 2) was greater than the mean SFC of the irrelevant epitope response, plus 2 SD, and 3) was two-fold greater than the SFC response in the pre-vaccination sample from the same patient, plus 2 SD. The inclusion of “plus two standard deviations” was used to accommodate the assay variability and served to increase the criteria stringency."}}, "data": [{"sequence": "KVAEIVHFL [MAGE3.112I5 A]", "values": [{"measurement": "No. Positive Responses", "setting": "central memory T cells [1]; Week 9", "value": 0}, {"measurement": "No. Positive Responses", "setting": "central memory T cells [1]; Week 18", "value": 0}, {"measurement": "net SFC of vaccine positive CTL responses", "setting": "central memory T cells [1]; NSCLC patient 201, Week 9", "value": "—"}, {"measurement": "net SFC of vaccine positive CTL responses", "setting": "central memory T cells [1]; NSCLC patient 201, Week 18", "value": "—"}, {"measurement": "net SFC of vaccine positive CTL responses", "setting": "central memory T cells [1]; NSCLC patient 502, Week 9", "value": "—"}, {"measurement": "net SFC of vaccine positive CTL responses", "setting": "central memory T cells [1]; NSCLC patient 502, Week 18", "value": "—"}, {"measurement": "net SFC of vaccine positive CTL responses", "setting": "central memory T cells [1]; NSCLC patient 504, Week 9", "value": "—"}, {"measurement": "net SFC of vaccine positive CTL responses", "setting": "central memory T cells [1]; NSCLC patient 504, Week 18", "value": "—"}, {"measurement": "net SFC of vaccine positive CTL responses", "setting": "central memory T cells [1]; NSCLC patient 505, Week 9", "value": "—"}, {"measurement": "net SFC of vaccine positive CTL responses", "setting": "central memory T cells [1]; NSCLC patient 505, Week 18", "value": "—"}, {"measurement": "net SFC of vaccine positive CTL responses", "setting": "central memory T cells [1]; NSCLC patient 532, Week 9", "value": "—"}, {"measurement": "net SFC of vaccine positive CTL responses", "setting": "central memory T cells [1]; NSCLC patient 532, Week 18", "value": "—"}, {"measurement": "net SFC of vaccine positive CTL responses", "setting": "central memory T cells [1]; NSCLC patient 651, Week 9", "value": "—"}, {"measurement": "net SFC of vaccine positive CTL responses", "setting": "central memory T cells [1]; NSCLC patient 651, Week 18", "value": "—"}, {"measurement": "Mean SFC", "setting": "central memory T cells [2]; Week 9", "value": "49.2 SFC per 50,000 cells"}, {"measurement": "Mean SFC", "setting": "central memory T cells [2]; Week 18", "value": "77.8 SFC per 50,000 cells"}, {"measurement": "net SFC of vaccine positive CTL responses", "setting": "central memory T cells [2]; colon patient 551, Week 9", "value": "—"}, {"measurement": "net SFC of vaccine positive CTL responses", "setting": "central memory T cells [2]; colon patient 551, Week 18", "value": "8.7 SFC per 50,000 cells"}, {"measurement": "net SFC of vaccine positive CTL responses", "setting": "central memory T cells [2]; colon patient 601, Week 9", "value": "27.0 SFC per 50,000 cells"}, {"measurement": "net SFC of vaccine positive CTL responses", "setting": "central memory T cells [2]; colon patient 601, Week 18", "value": "—"}, {"measurement": "net SFC of vaccine positive CTL responses", "setting": "central memory T cells [2]; colon patient 602, Week 9", "value": "—"}, {"measurement": "net SFC of vaccine positive CTL responses", "setting": "central memory T cells [2]; colon patient 602, Week 18", "value": "—"}, {"measurement": "net SFC of vaccine positive CTL responses", "setting": "central memory T cells [2]; colon patient 603, Week 9", "value": "—"}, {"measurement": "net SFC of vaccine positive CTL responses", "setting": "central memory T cells [2]; colon patient 603, Week 18", "value": "16.0 SFC per 50,000 cells"}, {"measurement": "net SFC of vaccine positive CTL responses", "setting": "central memory T cells [2]; colon patient 604, Week 9", "value": "60.3 SFC per 50,000 cells"}, {"measurement": "net SFC of vaccine positive CTL responses", "setting": "central memory T cells [2]; colon patient 604, Week 18", "value": "268.0 SFC per 50,000 cells"}, {"measurement": "net SFC of vaccine positive CTL responses", "setting": "central memory T cells [2]; colon patient 605, Week 9", "value": "—"}, {"measurement": "net SFC of vaccine positive CTL responses", "setting": "central memory T cells [2]; colon patient 605, Week 18", "value": "—"}, {"measurement": "net SFC of vaccine positive CTL responses", "setting": "central memory T cells [2]; colon patient 606, Week 9", "value": "—"}, {"measurement": "net SFC of vaccine positive CTL responses", "setting": "central memory T cells [2]; colon patient 606, Week 18", "value": "18.7 SFC per 50,000 cells"}, {"measurement": "net SFC of vaccine positive CTL responses", "setting": "central memory T cells [2]; colon patient 607, Week 9", "value": "60.3 SFC per 50,000 cells"}, {"measurement": "net SFC of vaccine positive CTL responses", "setting": "central memory T cells [2]; colon patient 607, Week 18", "value": "—"}, {"measurement": "net SFC of vaccine positive CTL responses", "setting": "central memory T cells [2]; colon patient 608, Week 9", "value": "—"}, {"measurement": "net SFC of vaccine positive CTL responses", "setting": "central memory T cells [2]; colon patient 608, Week 18", "value": "—"}, {"measurement": "net SFC of vaccine positive CTL responses", "setting": "central memory T cells [2]; colon patient 609, Week 9", "value": "—"}, {"measurement": "net SFC of vaccine positive CTL responses", "setting": "central memory T cells [2]; colon patient 609, Week 18", "value": "—"}, {"measurement": "% of patients with positive CTL/central memory T cell response", "setting": "central memory T cells [3]; phase 2, month 9", "value": 0, "unit": "%"}, {"measurement": "patients with positive CTL/central memory T cell response / patients tested", "setting": "central memory T cells [3]; phase 2, month 9", "value": "0/7"}, {"measurement": "% of patients with positive CTL/central memory T cell response", "setting": "central memory T cells [3]; phase 2, month 12", "value": 0, "unit": "%"}, {"measurement": "patients with positive CTL/central memory T cell response / patients tested", "setting": "central memory T cells [3]; phase 2, month 12", "value": "0/4"}, {"measurement": "% of patients with positive CTL/central memory T cell response", "setting": "central memory T cells [3]; phase 2, week 9", "value": 30, "unit": "%"}, {"measurement": "patients with positive CTL/central memory T cell response / patients tested", "setting": "central memory T cells [3]; phase 2, week 9", "value": "10/33"}, {"measurement": "% of patients with positive CTL/central memory T cell response", "setting": "central memory T cells [3]; phase 2, week 18", "value": 25, "unit": "%"}, {"measurement": "patients with positive CTL/central memory T cell response / patients tested", "setting": "central memory T cells [3]; phase 2, week 18", "value": "8/32"}, {"measurement": "% of patients with positive CTL/central memory T cell response", "setting": "central memory T cells [3]; phase 2, week 30", "value": 43, "unit": "%"}, {"measurement": "patients with positive CTL/central memory T cell response / patients tested", "setting": "central memory T cells [3]; phase 2, week 30", "value": "10/23"}]}]}
